Assay results taken from PMC12152147, “DDB1 engagement defines the selectivity of S656 analogs for cyclin K degradation over CDK inhibition” (EMBO Reports, 2025).
Like-named read-outs stand apart in the source and are kept apart here.

Experiments:
OCI-AML5 cells = experiment: Dose-response proliferative assay in OCI-AML5 (4 days, CellTiterGlo); type: cell-based, H. sapiens; settings: for IC50: Homo sapiens
In short: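 OCI-AML5 cells in αMEM, 10% heat-inactivated FBS plus 10 ng/mL GM-CSF, 300 cells/well, exposed to 8-point 1:4 serial dilutions (10 μM down to 0.5 nM). Viability read after 4 days in culture at 37 °C, 5% CO2.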

cyclin KeGFP = experiment: Cyclin KeGFP reporter system (eGFP/mCherry MFI by flow cytometry);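 also: 10 μM compound for 3 h relative to DMSO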; type: cell-based, H. sapiens; settings: cyclin K-eGFP reporter
In short: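 OCI-AML5 clone G7 carrying lentiviral cyclin KeGFP/mCherry reporter. eGFP and mCherry geometric MFI measured by flow cytometry; eGFP/mCherry ratio normalized to DMSO-treated cells.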

CDK1 = target: T1, CDK1 (Homo sapiens, UniProt P06493); experiment: CDK1 in vitro kinase activity, single concentration 1 μM; type: biochemical; settings: single concentration 1 μM
T1 construct: purchased BPS Bioscience 79597
T1 sequence (P06493 whole entry): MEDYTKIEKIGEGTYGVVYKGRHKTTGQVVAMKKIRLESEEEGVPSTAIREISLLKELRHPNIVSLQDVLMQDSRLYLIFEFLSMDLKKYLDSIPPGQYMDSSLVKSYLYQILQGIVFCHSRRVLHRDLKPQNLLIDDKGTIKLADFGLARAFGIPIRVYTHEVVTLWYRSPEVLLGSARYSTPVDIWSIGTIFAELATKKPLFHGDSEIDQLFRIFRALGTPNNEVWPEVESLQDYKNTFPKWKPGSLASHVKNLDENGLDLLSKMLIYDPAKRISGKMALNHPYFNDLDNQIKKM
T1 sequence (P14635 whole entry partner): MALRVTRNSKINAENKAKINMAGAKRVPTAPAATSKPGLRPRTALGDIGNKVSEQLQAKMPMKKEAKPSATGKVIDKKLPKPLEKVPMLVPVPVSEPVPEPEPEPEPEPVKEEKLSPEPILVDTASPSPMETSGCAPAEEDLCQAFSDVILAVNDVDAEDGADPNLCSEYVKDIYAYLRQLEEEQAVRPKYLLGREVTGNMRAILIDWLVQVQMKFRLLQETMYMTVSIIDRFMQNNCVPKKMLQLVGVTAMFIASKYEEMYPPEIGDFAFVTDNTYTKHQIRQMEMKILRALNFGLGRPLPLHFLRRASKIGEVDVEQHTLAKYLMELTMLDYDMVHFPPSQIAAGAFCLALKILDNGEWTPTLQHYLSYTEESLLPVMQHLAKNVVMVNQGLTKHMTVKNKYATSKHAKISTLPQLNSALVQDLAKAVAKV
Procedure: (§1) Kinase activity was assessed using the kinase assay kits from BPS Bioscience for CDK1, CDK9 and CDK12 with Kinase Glo MAX in duplicates. Compounds were tested at a single concentration of 1 μM for CDK1 and CDK9 activity, and in a dilution ranging from 0.64 nM to 50 μM for CDK12 activity. Chemiluminescence was read using the Neo Synergy BioTek plate reader.

CDK9/CyclinT = target: T2, CDK9/CyclinT (Homo sapiens, UniProt P50750); experiment: CDK9/CyclinT in vitro kinase activity, single concentration 1 μM; type: biochemical; settings: single concentration 1 μM
T2 construct: purchased BPS Bioscience 79628
T2 sequence (P50750 whole entry): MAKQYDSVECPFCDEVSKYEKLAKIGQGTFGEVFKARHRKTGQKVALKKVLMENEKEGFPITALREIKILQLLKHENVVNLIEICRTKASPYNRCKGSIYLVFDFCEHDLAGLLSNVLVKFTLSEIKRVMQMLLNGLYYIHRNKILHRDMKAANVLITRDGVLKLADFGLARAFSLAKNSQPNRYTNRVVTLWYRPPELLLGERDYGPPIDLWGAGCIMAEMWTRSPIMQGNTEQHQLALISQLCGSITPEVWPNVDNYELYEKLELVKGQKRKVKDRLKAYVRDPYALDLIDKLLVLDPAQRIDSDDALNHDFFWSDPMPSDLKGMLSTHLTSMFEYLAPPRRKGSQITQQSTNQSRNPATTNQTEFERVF
T2 sequence (O60563 whole entry partner): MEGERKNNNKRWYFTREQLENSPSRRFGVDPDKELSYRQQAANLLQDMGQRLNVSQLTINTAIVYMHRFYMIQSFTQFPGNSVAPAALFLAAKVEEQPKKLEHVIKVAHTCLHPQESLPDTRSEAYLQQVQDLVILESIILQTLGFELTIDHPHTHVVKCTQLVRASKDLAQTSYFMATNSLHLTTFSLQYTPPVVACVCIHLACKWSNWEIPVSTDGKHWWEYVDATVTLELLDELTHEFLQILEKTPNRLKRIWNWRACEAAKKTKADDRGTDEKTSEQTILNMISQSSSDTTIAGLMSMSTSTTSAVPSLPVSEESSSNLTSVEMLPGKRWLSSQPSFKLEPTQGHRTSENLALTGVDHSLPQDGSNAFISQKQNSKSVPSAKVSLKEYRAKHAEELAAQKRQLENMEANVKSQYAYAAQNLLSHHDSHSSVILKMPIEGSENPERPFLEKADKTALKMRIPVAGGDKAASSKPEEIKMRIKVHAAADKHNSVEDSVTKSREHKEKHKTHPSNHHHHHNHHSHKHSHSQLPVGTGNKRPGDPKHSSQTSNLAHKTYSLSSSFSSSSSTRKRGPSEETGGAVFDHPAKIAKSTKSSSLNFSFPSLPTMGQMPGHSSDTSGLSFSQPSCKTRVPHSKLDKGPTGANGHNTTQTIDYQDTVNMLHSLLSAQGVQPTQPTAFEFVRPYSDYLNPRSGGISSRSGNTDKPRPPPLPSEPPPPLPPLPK
Procedure: as §1

[1] = system: OCI-AML5 cells expressing shRNAs targeting CDK1, 2, 4, 7, 9, cyclin K; experiment: Dose response in OCI-AML5 expressing shRNAs targeting CDK1, 2, 4, 7, 9, cyclin K or control; type: cell-based, H. sapiens; settings: for IC50: Homo sapiens; for class based on cellular selectivity: IC50 in shRNA OCI-AML5 cells and cyclin KeGFP degradation; for Class: class from shRNA IC50 profile and cyclin K-eGFP degradation
[2] = system: OCI-AML5 cells expressing shRNA targeting CUL4A or CUL4B; experiment: Dose response in OCI-AML5 expressing shRNAs targeting CUL4A, CUL4B or control; type: cell-based, H. sapiens; settings: ratio of IC50 in shCUL4A vs shCTRL OCI-AML5 cells
primary AML specimens = experiment: Dose-response assays in primary AML specimens (6 days, CellTiterGlo); type: cell-based, human; settings: Homo sapiens, 144 h, read-out: median IC50 in a panel of 40 primary AMLs, 6 days
Procedure: Freshly thawed primary AML specimens were used for chemical screens. Cryopreserved cells were thawed at 37 °C in IMDM containing 20% FBS and DNase I (100 μg/mL). Cells were resuspended in IMDM supplemented with 15% BIT (BSA, insulin, transferrin; StemCell Technologies), 100 ng/mL SCF, 50 ng/mL FLT3L, 20 ng/mL IL3, 20 ng/mL G-CSF, 10^−4 mol/L b-mercaptoethanol, gentamicin (50 μg/mL), ciprofloxacin (10 μg/mL), SR1 (500 nmol/L) and UM729 (500 nmol/L). Cells were plated in 384-well white plates, 5000 cells per well in 50 μL. Compounds were dissolved in DMSO, diluted in media immediately before use and added to seeded cells at the unique concentration of 1 μM. Control wells received DMSO (0.1%) only. Cell viability was evaluated after 6 days in culture using the CellTiterGlo assay according to the manufacturer’s instruction. Percentage of inhibition for dose response curves was calculated as 100 – (100 × (mean luminescence [compound]/mean luminescence [DMSO])). Dose response curves were generated using nonlinear regression in GraphPad Prism version.
Dose-response assays in primary AML specimens were performed as in chemical screen (see above) with the exception that compounds were tested in serial dilution (8 dilutions, 1:4, 10 μM down to 0.5 nM). Dose-response assays in OCI-AML5 cell line were conducted similarly with the following modifications: 300 cells per well were seeded in 50 μL of cell line media and cell viability was evaluated after 4 days in culture.

[3] = system: OCI-AML5 and U937 cell lines; experiment: Synergistic interaction assay with THZ531 (Bliss score); type: cell-based
Excerpt: 3. It may be worthwhile to investigate whether the CDK12/13 inhibitor THZ531 could synergize with S656 or analogues like UOM-005636 that specifically degrade Cyclin K, in combination cytotoxicity assays, assessing selective suppression of AML viability over normal cells. Both […]
inhibiting CDK12, and S656 / UOM-005636 by degrading Cyclin K. Similar synergistic effects were observed by Katharina et al., where THZ531 promoted prostate ca ncer cell sensitivity to androgen deprivation therapy [Frei, K et. al. Inhibition of the Cyclin K-CDK12 complex induces DNA damage and increases the effect of androgen deprivation therapy in prostate cancer. Int J […]
Indeed, THZ531 is a covalent CDK12/13 inhibitor that specifically binds to the kinase pocket of […]
pocket of CDK12, and that pre-incubation with THZ531 competes with S656-mediated Cyclin K degradation (see Figure 5E).
We performed a synergistic interaction assay between THZ531 and S656 or UOM-005636 in OCI-AML5 and U937 cell lines (see below). […]
interactions between THZ531 and our cyclin K degrader molecules. This is likely due to both drugs competing for the same binding site, rather than acting through complementary pathways. […]

[4] = target: T3, OCI-AML5 total protein extracts (cyclin K, CDKs, DDB1) (Homo sapiens, UniProt P21439); experiment: Pull-down with immobilized probes and quantitative mass spectrometry; type: binding, H. sapiens; settings: protein ABCB4 (P21439)
T3 construct: endogenous in cells; host or cells: OCI-AML5 total protein extract
T3 sequence (P21439 whole entry): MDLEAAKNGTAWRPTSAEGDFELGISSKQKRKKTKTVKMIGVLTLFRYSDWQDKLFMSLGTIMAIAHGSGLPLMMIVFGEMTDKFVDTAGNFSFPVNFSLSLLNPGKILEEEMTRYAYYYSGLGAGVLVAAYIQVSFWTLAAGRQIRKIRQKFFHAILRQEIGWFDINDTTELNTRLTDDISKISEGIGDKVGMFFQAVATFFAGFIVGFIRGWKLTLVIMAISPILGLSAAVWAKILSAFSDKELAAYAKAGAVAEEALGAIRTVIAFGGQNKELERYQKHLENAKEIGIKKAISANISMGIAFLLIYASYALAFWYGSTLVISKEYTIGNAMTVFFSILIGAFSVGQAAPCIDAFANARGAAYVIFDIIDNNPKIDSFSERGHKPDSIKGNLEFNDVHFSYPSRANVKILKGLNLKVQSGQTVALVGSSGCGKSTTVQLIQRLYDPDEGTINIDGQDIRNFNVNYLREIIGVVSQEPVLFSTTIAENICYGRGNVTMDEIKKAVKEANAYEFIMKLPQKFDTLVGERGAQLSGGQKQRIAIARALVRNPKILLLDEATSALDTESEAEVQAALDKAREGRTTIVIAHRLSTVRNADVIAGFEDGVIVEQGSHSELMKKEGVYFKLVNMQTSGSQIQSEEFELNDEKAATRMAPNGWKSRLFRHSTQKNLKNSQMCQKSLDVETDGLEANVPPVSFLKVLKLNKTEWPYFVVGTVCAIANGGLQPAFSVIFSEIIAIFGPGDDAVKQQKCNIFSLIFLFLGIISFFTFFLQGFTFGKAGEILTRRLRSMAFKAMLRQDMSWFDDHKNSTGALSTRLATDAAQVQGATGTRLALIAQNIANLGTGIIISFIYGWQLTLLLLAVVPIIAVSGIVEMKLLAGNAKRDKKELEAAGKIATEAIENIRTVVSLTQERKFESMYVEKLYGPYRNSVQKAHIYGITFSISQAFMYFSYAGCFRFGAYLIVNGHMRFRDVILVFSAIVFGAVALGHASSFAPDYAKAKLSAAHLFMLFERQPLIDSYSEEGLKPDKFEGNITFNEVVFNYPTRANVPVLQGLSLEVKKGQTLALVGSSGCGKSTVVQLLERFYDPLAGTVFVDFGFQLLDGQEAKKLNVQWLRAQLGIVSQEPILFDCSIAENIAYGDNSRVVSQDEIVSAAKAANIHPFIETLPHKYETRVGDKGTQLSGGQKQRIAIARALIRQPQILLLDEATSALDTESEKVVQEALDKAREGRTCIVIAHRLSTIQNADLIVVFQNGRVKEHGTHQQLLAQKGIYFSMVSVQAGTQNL
Procedure: (§2) Probe compounds were immobilized through their terminal amine on NHS-sepharose beads as previously described (Médard et al, [2015]). The prepared beads were then washed in PBS and equilibrated in Triton X-100 buffer. For each replicate, 1–2 mg of total proteins (2 mg/ml) were incubated end-over-end with 25 μl of beads overnight at 4 °C in low protein binding microtubes (Sarstedt). The samples were then washed twice in Triton X-100 buffer, transferred to new microtubes and further washed six times in PBS including another microtube transfer at the last wash. Beads pellets were resuspended in 50 mM ammonium bicarbonate and subjected to reduction, alkylation and tryptic digest as described above. Peptides were separated on an home-made reversed-phase column (150-μm i.d. by 200 mm) with a 56-min gradient from 10 to 30% ACN-0.2% FA and a 600-nl/min flow rate on a Easy nLC-1200 connected to a Exploris 480 (ThermoFisher Scientific, San Jose, CA). Each full MS spectrum acquired at a resolution of 120,000 was followed by tandem-MS (MS-MS) spectra acquisition on the most abundant multiply charged precursor ions for 3 s. Tandem-MS experiments were performed using higher energy collision dissociation (HCD) at a collision energy of 34%. The data were processed using PEAKS X Pro (Bioinformatics Solutions, Waterloo, ON) and a Uniprot human database (20366 entries). Mass tolerances on precursor and fragment ions were 10 ppm and 0.01 Da, respectively. Fixed modification was carbamidomethyl (C). Variable selected posttranslational modifications were acetylation (N-ter), oxidation (M), deamidation (NQ), phosphorylation (STY). The data were visualized with Scaffold 5.0 (protein threshold, 99%, with at least 2 peptides identified and a false-discovery rate [FDR] of 1% for peptides).
(§3) Differential Enrichment analysis of Proteomics data (DEP) package (Zhang et al, [2018]) in R was used to analyze the data (excluding proteins identified based on a single peptide), including data filtering, normalization, imputation of missing values and statistical testing of differentially expressed proteins.

[5] = target: T4, OCI-AML5 total protein extracts (cyclin K, CDKs, DDB1) (Homo sapiens, UniProt P45844); experiment: as above; type: binding, H. sapiens; settings: protein ABCG1 (P45844)
T4 construct: endogenous in cells; host or cells: OCI-AML5 total protein extract
Procedure: as §2, §3

[6] = target: T5, OCI-AML5 total protein extracts (cyclin K, CDKs, DDB1) (Homo sapiens, UniProt Q6UXT9); experiment: as above; type: binding, H. sapiens; settings: protein ABHD15 (Q6UXT9)
T5 construct: endogenous in cells; host or cells: OCI-AML5 total protein extract
T5 sequence (Q6UXT9 24-468): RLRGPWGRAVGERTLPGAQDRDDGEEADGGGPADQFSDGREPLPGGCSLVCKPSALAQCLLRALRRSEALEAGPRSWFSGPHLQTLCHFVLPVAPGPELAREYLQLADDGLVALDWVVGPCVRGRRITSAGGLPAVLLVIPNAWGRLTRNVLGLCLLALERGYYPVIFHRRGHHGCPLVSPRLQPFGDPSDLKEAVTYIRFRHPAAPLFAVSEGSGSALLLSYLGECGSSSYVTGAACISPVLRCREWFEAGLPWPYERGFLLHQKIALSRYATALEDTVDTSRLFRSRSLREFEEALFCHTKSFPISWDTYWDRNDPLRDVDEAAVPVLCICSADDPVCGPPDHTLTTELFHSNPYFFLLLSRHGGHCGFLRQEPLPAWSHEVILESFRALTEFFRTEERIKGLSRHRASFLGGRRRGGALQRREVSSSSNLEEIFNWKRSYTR
Procedure: as §2, §3

[7] = target: T6, OCI-AML5 total protein extracts (cyclin K, CDKs, DDB1) (Homo sapiens, UniProt Q86UQ4); experiment: as above; type: binding, H. sapiens; settings: protein ABCA13 (Q86UQ4)
T6 construct: endogenous in cells; host or cells: OCI-AML5 total protein extract
Procedure: as §2, §3

[8] = target: T7, OCI-AML5 total protein extracts (cyclin K, CDKs, DDB1) (Homo sapiens, UniProt Q96IU4); experiment: as above; type: binding, H. sapiens; settings: protein ABHD14B (Q96IU4)
T7 construct: endogenous in cells; host or cells: OCI-AML5 total protein extract
T7 sequence (Q96IU4 1-210): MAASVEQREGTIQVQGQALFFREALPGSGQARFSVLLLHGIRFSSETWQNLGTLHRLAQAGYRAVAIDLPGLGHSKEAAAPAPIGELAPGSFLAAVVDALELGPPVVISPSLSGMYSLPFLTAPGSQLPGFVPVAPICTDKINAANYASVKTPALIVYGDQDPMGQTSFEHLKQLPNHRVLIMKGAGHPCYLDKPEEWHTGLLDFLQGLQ
Procedure: as §2, §3

[9] = OCI-AML-5, OCI-AML5 cells, read-out: IC50 in AML5
[10] = OCI-AML-5, OCI-AML5 expressing shRNA CCNK (cyclin K), read-out: IC50 shRNA CCNK
[11] = OCI-AML-5, OCI-AML5 expressing shRNA CDK1, read-out: IC50 shRNA CDK1
[12] = OCI-AML-5, OCI-AML5 expressing shRNA CDK2, read-out: IC50 shRNA CDK2
[13] = OCI-AML-5, OCI-AML5 expressing shRNA CDK4, read-out: IC50 shRNA CDK4
[14] = OCI-AML-5, OCI-AML5 expressing shRNA CDK7, read-out: IC50 shRNA CDK7
[15] = OCI-AML-5, OCI-AML5 expressing shRNA CDK9, read-out: IC50 shRNA CDK9
[16] = OCI-AML-5, 96 h, 4 days incubation, read-out: IC50 OCI-AML5

Structure (SMILES)	IC50 (OCI-AML5 cells; [9]) [nM]	% degradation cyclin K-eGFP (cyclin KeGFP) [%]	inhibition at 1 µM (CDK1) [%]	inhibition at 1 µM (CDK9/CyclinT) [%]	IC50 [1, 10] [nM]	IC50 [1, 11] [nM]	IC50 [1, 12] [nM]	IC50 [1, 13] [nM]	IC50 [1, 14] [nM]	IC50 [1, 15] [nM]	class based on cellular selectivity [1]	Class [1]	Ratio shCUL4A/shCTRL [2]	IC50 (OCI-AML5 cells; [16]) [nM]	further results
O=C(Cc1ccc(N2CCCC2)cc1)Nc1ncc(SCc2cccnc2)s1 [UOM-005608]	152	77	63	54	45.2	160	180	160	170	125	Class I (effective cyclin K MGDs (decreased IC50 in cyclin K depleted cells only, and >65% degradation of cyclin KeGFP))	1	2.84		
CC(=O)N1CCN(c2ccc(CC(=O)Nc3ncc(SCc4cccnc4)s3)cc2)CC1 [UOM-005614]	1730	0	43	84	1370	648	1720	2150	1400	743	Class II	2	0.67		
O=C(Cc1ccc(-c2ccccn2)cc1)Nc1ncc(SCc2cccnc2)s1 [UOM-005636]		80	69	57	21.7	112	142	140	140	101	Class I (effective cyclin K MGDs (decreased IC50 in cyclin K depleted cells only, and >65% degradation of cyclin KeGFP))	1	2.3	85	IC50 (primary AML specimens): 154 nM; times more potent than S656 (OCI-AML5 cells; OCI-AML5 cell line and panel of 40 primary AMLs): 8; synergistic interaction with THZ531 (Bliss score) [3]: moderate to very low synergistic
CN(CCOCCOCCN)c1ccc(CC(=O)Nc2nnc(SCc3cccnc3)s2)cc1 [UOM-005839]														> 10000	UOM-005839_centered ([4]; centered abundance): 0.902; UOM-005839_vs_Beads_ratio ([4]; immobilized probe vs beads): -2; UOM-005839_centered ([5]; centered abundance): -1.3; UOM-005839_vs_Beads_ratio ([5]; immobilized probe vs beads): 1.31; UOM-005839_centered ([6]; centered abundance): 0.886; UOM-005839_vs_Beads_ratio ([6]; immobilized probe vs beads): 4.56; UOM-005839_centered ([7]; centered abundance): 0.126; UOM-005839_vs_Beads_ratio ([7]; immobilized probe vs beads): -0.0556; UOM-005839_centered ([8]; centered abundance): 0.505; UOM-005839_vs_Beads_ratio ([8]; immobilized probe vs beads): 3.62
